Measured values taken from patent US8772199B2, “Herbicidal compositions for tolerant or resistant maize crops” (Bayer Intellectual Property GmbH, priority 1998, dated 2014).
Where a name gives a salt, the structure may show the parent alone.

Tests used:
Test in all cases: Field trial with maize, herbicidal action
Type in all cases: in vivo
Lolium multiflorum = conditions: application 2- to 4-leaf stage, scoring 26 days after application
In short: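 Weed control is expressed as visually estimated percentage destruction of aerial plant parts, where 50% means half of plants and green parts destroyed, compared with untreated field plots. Ratings were taken 2–8 weeks after application in herbicide-resistant maize and averaged across four plots.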

Digitaria sanguinalis = conditions: application 5-6-leaf stage, scoring 11 days after application
Panicum dichotomiflorum = conditions: application 5-6-leaf stage, scoring 11 days after application

## CP(=O)(O)CCC(N)C(=O)O (stereo not drawn) [(A1.2), glufosinate-monoammonium salt]
Lolium multiflorum; 200 g of a.s./ha
  Herbicidal action (%) against Lolium multiflorum: 0%
Lolium multiflorum; 330 g of a.s./ha
  Herbicidal action (%) against Lolium multiflorum: 15%
Lolium multiflorum; 500 g of a.s./ha
  Herbicidal action (%) against Lolium multiflorum: 78%
Digitaria sanguinalis; 200 g of a.s./ha
  Herbicidal action (%) against Digitaria sanguinalis: 0%
Digitaria sanguinalis; 400 g of a.s./ha
  Herbicidal action (%) against Digitaria sanguinalis: 15%
Digitaria sanguinalis; 600 g of a.s./ha
  Herbicidal action (%) against Digitaria sanguinalis: 30%
Panicum dichotomiflorum; 200 g of a.s./ha
  Herbicidal action (%) against Panicum dichotomiflorum: 8%
Panicum dichotomiflorum; 400 g of a.s./ha
  Herbicidal action (%) against Panicum dichotomiflorum: 50%
Panicum dichotomiflorum; 600 g of a.s./ha
  Herbicidal action (%) against Panicum dichotomiflorum: 92%
